Experimental data from patent US20250197460A1, “USE OF LACTOBACILLUS PARACASEI GM-080 AND PEPTIDES THEREOF FOR ANTIMICROBIA” (GenMont Biotech Incorporation, priority 2023, published 2025).

What was measured:
[1] = system: Streptococcus pyogenes NZ131; experiment: Antimicrobial peptide co-culture, viable bacteria in a dish coating manner; type: cell-based; conditions: 1-200 mg/mL
Method: (§1) The powder was diluted with DMSO to different concentrations. Subsequently, after being co-cultured with pathogenic streptococcus for different time periods, it was confirmed whether the antimicrobial peptides were the antimicrobial peptide of GM-080 capable of inhibiting Streptococcus pyogenes NZ131 by OD6oonm or in a dish coating manner simultaneously.

[2] = system: Streptococcus pyogenes NZ131; experiment: Antimicrobial peptide co-culture with Streptococcus pyogenes (OD); type: cell-based
Method: as §1

Row | Sequence | inhibition of growth of Streptococcus pyogenes in a dish coating manner (viable bacteria) ([1]; co-cultured for 2 or 5 hours, FIG. 9A) | inhibition of Streptococcus pyogenes in a co-culture manner ([2]; 10-200 mg/mL, from 2-3 hours of co-culture, FIG. 8A) | inhibition of growth of Streptococcus pyogenes in a dish coating manner ([1]; FIG. 9B) | inhibition of growth of Streptococcus pyogenes in a co-culture manner ([2]; 1-200 mg/mL, FIG. 8B)
1 | MELLNEKELAHVIGGKRKCPKTPFDNTPGAWFAHLILGC (GM-080; listed as Lactobacillus paracasei) [AMP-01026, antimicrobial peptide of Lactobacillus paracasei GM-080, synthesized] | significantly inhibit the growth | good inhibition effect |  | 
2 | MKQFDEQKMVNMSDEELLEFIGGDSIRDVSPTFNKIRRWFDGLFK (GM-080; listed as Lactobacillus paracasei) [AMP-01240, second predicted antimicrobial peptide segment of GM-080, synthesized] |  |  | not capable of inhibiting the growth | not capable of inhibiting the growth
